What all share (format): functional
Experiment [1] concerns Mus musculus. The experiment can be described thus: Increase in mean survival time in mice inoculated with Plasmodium berghei days was reported following 40 mg/kg.
In experiment [2] the test system is Mus musculus. The experiment can be described thus: Antimalarial activity was assessed against Plasmodium berghei in mice (Mus musculus) at 640 mg/kg dosage of the compound; Cure.
The subject of experiment [3] is Mus musculus. The experiment can be described thus: Antimalarial activity was assessed against Plasmodium berghei in mice (Mus musculus) at 160 mg/kg dosage of the compound; Cure.
For experiment [4], the system named is Mus musculus. The experiment can be described thus: Antimalarial activity was assessed against Plasmodium berghei in mice (Mus musculus) at 320 mg/kg dosage of the compound; Cure.
The test system of experiment [5] is Mus musculus. The experiment is described as follows: Antimalarial activity was assessed against Plasmodium berghei in mice (Mus musculus). Increase in mean survival time in days was reported, at 80 mg/kg dosage of the compound.
The test system of experiment [6] is Mus musculus. The experiment can be described thus: Antimalarial activity was assessed against Plasmodium berghei in mice (Mus musculus). Increase in mean survival time in days was reported at 160 mg/kg dosage of the compound.
In experiment [7] the test system is Mus musculus. The experiment can be described thus: Antimalarial activity was assessed against Plasmodium berghei in mice (Mus musculus) at 80 mg/kg dosage of the compound; Cure.
Experiment [8] deals with Mus musculus. The experiment is described as follows: Antimalarial mice (Mus musculus) at 320 mg/kg dosage of the compound; Cure.
Experiment [9] concerns Mus musculus. The experiment is described as follows: Antimalarial activity was assessed against Plasmodium berghei in mice (Mus musculus). Increase in mean survival time in days was reported at 320 mg/kg dosage of the compound.
The test system of experiment [10] is Mus musculus. The experiment can be described thus: Antimalarial activity was assessed against Plasmodium berghei in mice (Mus musculus). Increase in mean survival time in days was reported at 640 mg/kg dosage of the compound.
For experiment [11], the system named is Mus musculus. The experiment can be described thus: Antimalarial activity was assessed against Plasmodium berghei in mice (Mus musculus) at 40 mg/kg dosage of the compound; Cure.

SMILES strings stand for the structures.

Consider 19 molecules from ChEMBL document CHEMBL1122602, “2-Acetylpyridine thiosemicarbazones. 8. Derivatives of 1-acetylisoquinoline as potential antimalarial agents” (1984).

Regarding `C/C(=N\N=C(/S)N1CCCCCC1)c1nccc2ccccc12`, the results for the “Increase in mean survival time” value in [1] and in experiment [5] were 7.8 days and 6.9 days, respectively. Moreover, the No. of cures was determined as 1 in experiment [2], 1 count in [3] and 2 count in [4].
Turning to `CC(N/N=C(\S)N(C)C)c1nccc2ccccc12` (stereo not given), the “Increase in mean survival time” value in experiment [1] was determined as 6.2 days. Besides, in experiment [3], the No. of cures stood at 2 count.
In experiment [6], `C/C(=N\N=C(/S)N(C)C)c1nccc2ccccc12` yielded a Mean survival time of 9.2 days. For the same molecule, in experiment [1], the “Increase in mean survival time” value worked out at 7.3 days. The molecule further had a No. of cures in experiment [7] of 1.
For `CC(N/N=C(\S)N1CCCCCC1)c1nccc2ccccc12` (stereo not given), the “Increase in mean survival time” value was 5.1 days in experiment [1] and 7.1 days in [5]. The No. of cures in experiment [2] was found to be 2; in [3], 3 count; in experiment [8], 2 count.
Regarding `C/C(=N\N=C(/S)N1CCCC1)c1nccc2ccccc12`, the figures for the “Increase in mean survival time” value in experiment [1] and in experiment [5] were 3.5 days and 2 days, respectively. For the same molecule, the No. of cures in experiment [3] and in experiment [4] was 2 count each time.
Turning to `C/C(=N\N=C(/S)N(C)C1CCCCC1)c1nccc2ccccc12`, the “Increase in mean survival time” value worked out at 9.5 days in experiment [1] and 7.9 days in experiment [5]. The No. of cures in [3] and in [4] was 3 count each time.
Turning to `CC(N/N=C(\S)N1CCC(c2ccccc2)CC1)c1nccc2ccccc12` (stereo not given), the “Increase in mean survival time” value in experiment [1] was 1.6 days; in experiment [5], 1 days. The No. of cures in experiment [2] was 4; in experiment [3] it was 2 count; in [4], 1 count.
On to `CC(N/N=C(\S)N1CCN(c2ccccn2)CC1)c1nccc2ccccc12` (stereo not given), for which the Mean survival time in experiment [6] amounted to 6.6 days; in experiment [9] it was 7.7 days. In addition, the “Increase in mean survival time” value turned out to be 1.6 days in [1] and 2.7 days in experiment [5]. In experiment [2], this molecule displayed a No. of cures of 3.
Turning to `CC(N/N=C(\S)NCc1ccccc1)c1nccc2ccccc12` (stereo not given), the Mean survival time in [6] came out at 0.9 days; in experiment [10] it was 0.1 days. The “Increase in mean survival time” value in [1] turned out to be 0.3 days.
Turning to `CC(N/N=C(\S)N1CC2CCC(CC2)C1)c1nccc2ccccc12` (stereo not given), in experiment [1], the “Increase in mean survival time” value turned out to be 9.7 days. Besides, the No. of cures came to 3 in [2], 5 count in [3], 1 count in experiment [7] and 4 count in experiment [4].
Consider `CC(N/N=C(\S)N(C)C1CCCCC1)c1nccc2ccccc12` (stereo not given), for which the No. of cures in [2] was determined as 1; in experiment [3], 2 count; in experiment [7] it was 3 count; in [4], 1 count; in experiment [11], 2 count.
For the molecule `CC1CN(/C(S)=N/NC(C)c2nccc3ccccc23)CC(C)O1` (stereo not given), the “Increase in mean survival time” value in [1] was found to be 5.9 days; in [5], 5.7 days. Also, the No. of cures stood at 2 in experiment [2], 2 count in experiment [3] and 3 count in experiment [4].
Regarding `CC1CCN(/C(S)=N/NC(C)c2nccc3ccccc23)CC1` (stereo not given), the results for the “Increase in mean survival time” value in experiment [1] and in [5] were 7.6 days and 8.9 days, respectively. The No. of cures in experiment [3] worked out at 3 count.
On to `CC(N/N=C(\S)N1CCCC1)c1nccc2ccccc12` (stereo not given), for which the “Increase in mean survival time” value was found to be 5.1 days in experiment [1] and 7.1 days in [5]. The No. of cures in [2] is 1; in experiment [3] it was 3 count; in [4], 3 count.
For `C/C(=N\N=C(/S)N1CCC(C)CC1)c1nccc2ccccc12`, the “Increase in mean survival time” value in [1] is 1 days. For the same molecule, the No. of cures came to 2 count in [3] and 1 count in experiment [7].
`C/C(=N\N=C(/S)N1CC(C)OC(C)C1)c1nccc2ccccc12` (stereo not given): the “Increase in mean survival time” value was 3.5 days in experiment [1] and 8.6 days in experiment [5]. In addition, the No. of cures in experiment [2] is 1; in experiment [3] it was 3 count; in experiment [4], 3 count.
`C/C(=N\N=C(/S)N1CC2CCC(CC2)C1)c1nccc2ccccc12`: the No. of cures in experiment [2] was 5; in [3], 5 count; in [7], 3 count; in [4] it was 5 count; in experiment [11] it was 2 count.
In the case of `C/C(=N\N=C(/S)N1CCC(c2ccccc2)CC1)c1nccc2ccccc12`, the “Increase in mean survival time” value in [1] stood at 2.7 days; in experiment [5], 5.7 days. Besides, the No. of cures in experiment [2] amounted to 4; in [3], 1 count; in experiment [4] it was 1 count.
Turning to `C/C(=N\N=C(/S)NCc1ccccc1)c1nccc2ccccc12`, the Mean survival time turned out to be 0.9 days in experiment [6] and 0.5 days in [10]. The “Increase in mean survival time” value in experiment [1] worked out at 0.1 days.
